Measurements: patent publication US12708630B2, “Combined therapy of 4′-thio-5-aza-2′-deoxycytidine and Venetoclax” (PINOTBIO, INC., priority 2021, dated 2026)

Columns and labels:
[1] = Pharmacokinetic evaluation in Mice (Table 4); details: mouse, in vivo; for half-life: read-out: T½ (converted)
Experimental: (§1) Aza-T-dCyd was administered orally and intravenously at various concentrations to Mice, Rats and Dogs to determine the PK profile.

[2] = Mouse AUC used for the human PK simulation; details: in vivo, mice, dose of 2.0 mg/kg
Experimental: The 96 mg/day must be divided by 3 or 4, resulting in 24 to 32 mg/day.

[3] = Pharmacokinetic evaluation in Rat; type: in vivo; details: for AUC(0-inf) / AUC(0-t) / Cmax / half-life / Tmax: in vivo, Rat; for half-life: read-out: T½ (converted)
Experimental: as §1

[4] = system: DNA methylation; experiment: DNA demethylation; type: cell-based
Source text: Through DNA demethylation caused by Aza-T-dCyd treatment, various tumor suppressor genes and genes required for differentiation induction of AML cells were reactivated, and the reactivated expression patterns of these genes were confirmed by RNA-seq data analysis (FIG. 24).

[5] = biological target: DNMT1 (Homo sapiens, UniProt P26358); experiment: DNMT1 expression in HL-60 xenograft tumor samples; type: in vivo, mice; design: tumor samples were collected on day 11 to determine the expression of DNMT1, DNMT3A, and DNMT3B; from tissue; host or cells: HL-60 xenograft tumour samples (mouse host); details: 2 mg/kg NTX-301 or 0.75 mg/kg Decitabine intraperitoneally, day 11
Chain of DNMT1 (P26358 whole entry): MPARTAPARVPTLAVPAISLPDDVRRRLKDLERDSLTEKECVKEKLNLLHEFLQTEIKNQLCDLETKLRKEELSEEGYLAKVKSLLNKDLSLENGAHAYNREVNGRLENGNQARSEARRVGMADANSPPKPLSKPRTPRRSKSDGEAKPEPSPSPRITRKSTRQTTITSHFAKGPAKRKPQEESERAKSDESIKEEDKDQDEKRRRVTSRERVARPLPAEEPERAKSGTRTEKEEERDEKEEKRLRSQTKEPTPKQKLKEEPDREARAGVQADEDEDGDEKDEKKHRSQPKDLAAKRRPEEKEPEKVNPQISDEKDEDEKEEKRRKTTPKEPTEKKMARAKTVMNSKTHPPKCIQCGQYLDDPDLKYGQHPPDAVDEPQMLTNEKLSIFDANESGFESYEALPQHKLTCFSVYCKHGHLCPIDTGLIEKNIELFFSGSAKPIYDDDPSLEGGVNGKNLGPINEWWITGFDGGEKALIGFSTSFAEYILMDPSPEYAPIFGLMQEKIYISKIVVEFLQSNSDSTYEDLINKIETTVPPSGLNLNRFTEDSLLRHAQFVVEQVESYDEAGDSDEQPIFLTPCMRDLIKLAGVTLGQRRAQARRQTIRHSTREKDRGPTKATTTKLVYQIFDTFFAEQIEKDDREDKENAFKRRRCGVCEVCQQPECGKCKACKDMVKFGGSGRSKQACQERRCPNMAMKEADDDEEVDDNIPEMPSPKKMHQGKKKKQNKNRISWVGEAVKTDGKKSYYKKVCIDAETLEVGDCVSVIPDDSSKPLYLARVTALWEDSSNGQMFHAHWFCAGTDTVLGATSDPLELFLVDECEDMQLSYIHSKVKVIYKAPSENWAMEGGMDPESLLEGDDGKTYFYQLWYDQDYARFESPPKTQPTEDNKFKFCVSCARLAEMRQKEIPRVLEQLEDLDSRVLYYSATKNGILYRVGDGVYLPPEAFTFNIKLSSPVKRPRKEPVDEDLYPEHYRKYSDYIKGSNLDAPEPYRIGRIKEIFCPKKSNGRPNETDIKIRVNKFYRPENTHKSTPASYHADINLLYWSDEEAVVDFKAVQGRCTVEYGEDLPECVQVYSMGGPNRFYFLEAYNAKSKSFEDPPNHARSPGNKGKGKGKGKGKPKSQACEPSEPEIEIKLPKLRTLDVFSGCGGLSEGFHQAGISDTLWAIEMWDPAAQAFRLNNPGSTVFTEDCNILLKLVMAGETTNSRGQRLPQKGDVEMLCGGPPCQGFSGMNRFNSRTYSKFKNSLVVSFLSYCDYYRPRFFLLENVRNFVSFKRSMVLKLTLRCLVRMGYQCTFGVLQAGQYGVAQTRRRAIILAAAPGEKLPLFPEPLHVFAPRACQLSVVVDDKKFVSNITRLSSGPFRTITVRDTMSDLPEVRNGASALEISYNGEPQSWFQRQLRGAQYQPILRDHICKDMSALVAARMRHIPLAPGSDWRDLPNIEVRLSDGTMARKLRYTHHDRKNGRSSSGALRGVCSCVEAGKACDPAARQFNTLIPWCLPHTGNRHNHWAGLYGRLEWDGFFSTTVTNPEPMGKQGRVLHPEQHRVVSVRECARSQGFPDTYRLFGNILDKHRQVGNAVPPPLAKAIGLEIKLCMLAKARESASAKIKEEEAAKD
Experimental: As the efficacy of DNMT1 inhibitors correlates with their selective profile for targeting DNMT1 and the de novo methyltransferases DNMT3A and DNMT3B, we confirmed the expression of DNMT1, DNMT3A, and DNMT3B in the Aza-T-dCyd and Decitabine treated groups in this xenograft model (FIG. 27).
In the HL-60 xenograft mice model, 2 mg/kg of NTX-301 (Aza-T-dCyd) or 0.75 mg/kg of Decitabine were administered intraperitoneally, and then tumor samples were collected on day 11 to determine the expression of DNMT1, DNMT3A, and DNMT3B. […] On the other hand, the expression levels of DNMT3A and DNMT3B were different in the Aza-T-dCyd and Decitabine treatment groups.

For Nc1ncn([C@H]2CC(O)[C@@H](CO)S2)c(=O)n1 (some centres unmarked) [Aza-T-dCyd, 4′-thio-5-aza-2′-deoxycytidine], the AUC(0-inf) ([1]; Table 4, IV 1 mg/kg) was 406 ng·h/mL, the AUC(0-t) ([1]; Table 4, IV 1 mg/kg) was 370 ng·h/mL and the Cmax ([1]; Table 4, IV 1 mg/kg) was 527 ng/mL. It also gave a half-life ([1]; Table 4, IV 1 mg/kg) of 0.612 h, an AUC(0-inf) ([1]; Table 4, PO 0.5 mg/kg) of 131 ng·h/mL and an AUC(0-t) ([1]; Table 4, PO 0.5 mg/kg) of 118 ng·h/mL. It also gave a Cmax ([1]; Table 4, PO 0.5 mg/kg) of 211 ng/mL, a Tmax ([1]; Table 4, PO 0.5 mg/kg) of 0.5 h and a half-life ([1]; Table 4, PO 0.5 mg/kg) of 0.304 h. It also gave an AUC(0-inf) ([1]; Table 4, PO 1 mg/kg) of 235 ng·h/mL, an AUC(0-t) ([1]; Table 4, PO 1 mg/kg) of 136 ng·h/mL and a Cmax ([1]; Table 4, PO 1 mg/kg) of 138 ng/mL. For the same compound, the Tmax ([1]; Table 4, PO 1 mg/kg) was 0.25 h, the half-life ([1]; Table 4, PO 1 mg/kg) was 1.72 h and the AUC(0-inf) ([1]; Table 4, PO 3 mg/kg) was 443 ng·h/mL. It also gave an AUC(0-t) ([1]; Table 4, PO 3 mg/kg) of 303 ng·h/mL, a Cmax ([1]; Table 4, PO 3 mg/kg) of 256 ng/mL and a Tmax ([1]; Table 4, PO 3 mg/kg) of 0.25 h. It also gave a half-life ([1]; Table 4, PO 3 mg/kg) of 1.11 h, an AUC(0-inf) ([1]; Table 4, PO 10 mg/kg) of 1460 ng·h/mL and an AUC(0-t) ([1]; Table 4, PO 10 mg/kg) of 1340 ng·h/mL. The Cmax ([1]; Table 4, PO 10 mg/kg) was 863 ng/mL, the Tmax ([1]; Table 4, PO 10 mg/kg) was 0.333 h and the half-life ([1]; Table 4, PO 10 mg/kg) was 1.15 h. For the same compound, the AUC [2] was 369 ng·h/mL, the AUC(0-inf) ([3]; IV 1 mg/kg) was 1900 ng·h/mL and the AUC(0-t) ([3]; IV 1 mg/kg) was 1330 ng·h/mL. For the same compound, the Cmax ([3]; IV 1 mg/kg) was 444 ng/mL, the half-life ([3]; IV 1 mg/kg) was 5.01 h and the AUC(0-inf) ([3]; PO 0.5 mg/kg) was 303 ng·h/mL. The AUC(0-t) ([3]; PO 0.5 mg/kg) was 190 ng·h/mL, the Cmax ([3]; PO 0.5 mg/kg) was 33.8 ng/mL and the Tmax ([3]; PO 0.5 mg/kg) was 2 h. For the same compound, the half-life ([3]; PO 0.5 mg/kg) was 5.24 h, the AUC(0-inf) ([3]; PO 1 mg/kg) was 790 ng·h/mL and the AUC(0-t) ([3]; PO 1 mg/kg) was 459 ng·h/mL. The Cmax ([3]; PO 1 mg/kg) was 81.9 ng/mL, the Tmax ([3]; PO 1 mg/kg) was 1.17 h and the half-life ([3]; PO 1 mg/kg) was 6.3 h. It also gave an AUC(0-inf) ([3]; PO 3 mg/kg) of 2800 ng·h/mL, an AUC(0-t) ([3]; PO 3 mg/kg) of 2780 ng·h/mL and a Cmax ([3]; PO 3 mg/kg) of 488 ng/mL. The Tmax ([3]; PO 3 mg/kg) was 0.83 h, the half-life ([3]; PO 3 mg/kg) was 3.45 h and the AUC(0-inf) ([3]; PO 10 mg/kg) was 9240 ng·h/mL. The AUC(0-t) ([3]; PO 10 mg/kg) was 9200 ng·h/mL, the Cmax ([3]; PO 10 mg/kg) was 1320 ng/mL and the Tmax ([3]; PO 10 mg/kg) was 2 h. The half-life ([3]; PO 10 mg/kg) was 2.95 h, the oral bioavailability ([3]; rats) was “orally bioavailable” and the “overall DNA methylation levels” value [4] was “decrease in overall DNA methylation levels”. The “pattern of DNA demethylation” value [4] was “biased and selective demethylation” and the “DNMT1 expression in tumor samples” value [5] was “significantly reduced”.
